Test results as given in patent publication EP1592418B1, “USE OF ENDOCANNABINOID-LIKE COMPOUNDS FOR TREATING CNS DEGENERATIVE DISORDERS” (Research & Innovation S.p.A., priority 2003, dated 2004).

Assays:
[1] = Rectal temperature (central cannabinoid effect, hypothermia); type: in vivo, mouse; conditions: treated animals; Vehicle 0,1 ± 0,2
Experimental: (§1) The tested molecules were solubilised in DMSO, cremophor and PBS in a ratio of 1:1:18 and administered usually by intraperitonelly at the dosage of 10 mg/Kg 1 hour before the induction of anafilactic reaction. The animals were sacrificed 3 hours after the molecule administration.
TABLE 4. Rectal temperature in animals that have been treated with cannabinoids, endocannabinoids or molecules that are object of the present invention. Note a profound hypothermia induced by synthetic cannabinoid such as Win 55,212 or the endocannabinoid Anandamide while no alteration was induced by molecules that are object of the present invention.

[2] = Solubility (physico-chemical properties); type: physicochemical; conditions: for solubility: organic solvent or mixture, in DMSO and in chloroform, read-out: solubility in organic solvents
Jurkat cells = assay: Evaluation of cellular viability by MTT assay; type: cell-based, human; conditions: 10 µM, incubated 18-24 hr, MTT, absorbance 570 nm
Experimental: Jurkat, an acute T-lymphoblastic leukemia cell line generated from a person, have been used. Cell culture have been cultured in RPMI-1640 culture medium containing 10% FBS.
Jurkat cells were cultured at 1x10^5 cells/ml in RPMI 1640 medium supplemented with 10% fetal bovine serum (FBS), 2mM L-glutamine and 100 U/ml penicillin + 100 ug/ml streptomycin.
To detect drug effect in vitro, MTT [3-(4,5-dimethylthiazol-2-yl)-2,5-diphenyltetrazolium bromide] assay was used as described (Carmichael J et al., 1987 Cancer Res. 47, 936-42). Briefly, cells were seeded in triplicate on 96-well culture plates at a density of 20000 cells/well. The drugs were added in order to have the final concentration of 10 µM (1 µl of a solution of 10mM in DMSO) and incubated for 18-24 hr. Then MTT (0.5 mg/ml) was added to each well, and plates were incubated for an additional 1 to 3 hr in the dark at 37 °C. After this time the MTT solution was aspirated from the wells and 0.1 ml of DMSO was added. The plates were allowed to stand for 10 min, and then the absorbance was determined in a SpectraCount (Packard) microplate reader at 570 nm. The drug effect was determined by comparing absorbances of treated and untreated cells.

[3] = system: reverse passive Arthus reaction, mouse ear pinna; assay: Reverse passive Arthus reaction (RPA) in the mouse ear pinna: oedema and Evans blue extravasation; type: in vivo; conditions: mouse ear; for Extravasation / Riduction % (extravasation): 10 mg/Kg i.p.; for Extravasation: Evans blue density at 620 nm in ear homogenate supernatant, Vehicle 0,90±0,06, Naïve 0,04±0,01; for Oedema (mg): 10 mg/Kg intraperitoneally 1 hour before induction, weight increase of 8 mm punch vs contralateral ear, three hours after antigen, Vehicle 49,8 ± 1,2, Naive 23,7 ± 1,2; for Riduction % (extravasation): reduction of extravasation versus Vehicle (0)
Source text: The Arthus model (RPA) is a model of immune-complex mediated tissue damage that involves the passive subcutaneous introduction of an antibody and the systemic administration of the corresponding antigen. This inflammatory model has been used to test the in vivo activity of the synthesised molecules.
The reverse passive Arthus reaction is induced, in the mouse ear pinna, by the subcutaneous injection of an excess of IgG anti human albumin followed by i.v. adiministration of the corresponding Ag (i.e. human albumin) together with Evans blue, 2 mg for each mouse, for the evaluation of extravasation.
as §1
The oedema and the extravasations are evaluated tree hours after the i.v. administration of the antigen. The oedema is evaluated as the increase of weight of lesioned ear area dissected by a 8 mm biopsy punch as compared to the contralateral unlesioned auricular tissues. The extravasation is measured determining the Evans blue density at 620 nm in the supernatants deriving from ear homogenates following centrifugation at 10000 x g for 20 min.

SMILES | ΔT (°C) rectal temperature [1] | solubility [2] [µg/mL] | solubility in water [2] | Growth inhibition (% of control) (Jurkat cells) | Extravasation [3] | Oedema (mg) [3] | Riduction % (extravasation) [3] [%]
CCCCCCCCCCCCCCCC(=O)NCCC(C)C [Example 35, N-isopentyl-palmitoyl amide] | 0,3 ± 0,2 °C | > 10000 | scarcely soluble | 29.2 % of control | 0,58±0,09 | 38,3 ± 1.8 mg | 35.6
CCCCCCCCCCCCCCCCCC(=O)NC(C)C [Example 4, N-Isopropyl-stearoyl amide] | 0,2 ± 0,1 °C | > 10000 | scarcely soluble | 45.3 % of control | 0,20±0,03 | 26,5 ± 0,9 mg | 77.8
CCCCCCCCCCCCCCCCCC(=O)NCCC(C)C [Example 36, N-isopentyl-stearoyl amide] | 0,1 ± 0,1 °C | > 10000 | scarcely soluble | 30.2 % of control | 0,52±0,05 | 33,7 ± 3.2 mg | 42.7
